Legend:
[1] = test system: BFU-E cells; test: Serum free erythroid liquid expansion (SFELE) progenitor growth assay of sorted BFU-E cells; format: cell-based, mouse; conditions: for Total cell expansion from 1000 BFU-E cells: CD71 10% low BFU-E cells, SFELE medium
Method: FIGS. 1A-1F. […] Error bars show one standard deviation. […] Error bars show one standard deviation. […] Shown is the fraction of c-kit+ cells after 72 hours. […] Cell numbers in each clone were estimated under the microscope on Day 8.
FIGS. 3A-3B. […] The experimental protocol was similar to that used in FIGS. 1A and B except that the CFU-E and BFU-E cells were purer (CD71 and CD24a^20% high and CD71 and CD24a^10% low, respectively). […] (A) Proliferation of sorted CFU-E cells. […] Error bars show one standard deviation. (B) Proliferation of sorted BFU-E cells. […] Error bars show one standard deviation.
FIG. 4. […] Cells were counted from day 4 until the day cell counts dropped.
(A) The total number of cells formed from 1000 BFU-E cells at different time points. […] Standard deviation between four separate biological experiments is shown in parenthesis (n/d=not determined).
We developed a modified version of the serum free erythroid liquid expansion culture (SFELE) medium described by Dolzning et al. (Dolznig et al., 2006).

[2] = test system: miRNA expression in BFU-E cells; test: Small RNA (miRNA) sequencing of BFU-E cells cultured 4 hours with or without Dex; format: cell-based, mouse; conditions: 100 nM Dex
Excerpt: FIGS. 2A-2B. The effect of glucocorticoids on miRNA and mRNA expression in BFU-E cells determined by next generation sequencing. […] Both mRNAs and miRNAs were subjected to Illumina deep sequencing. […] (B) A plot similar to that in A for expression of individual mRNAs. mRNA expression was normalized using the RPKM method, which determines the relative expression of each gene to all expressed genes by giving each gene an RPKM count (number of uniquely aligning reads per kb exon per million total reads).
B) Percent of total miRNA expression of the 20 highest expressed miRNAs. C) Percent of total miRNA expression of the 20 highest expressed miRNA-families.
Differences in miRNA expression were determined as described previously (Baek et al., 2008). […] Since several miRNAs contain the same seed sequence and therefore target the same group of mRNAs we also compared changes in expression of miRNA families.
Small RNA sequencing was performed essentially as described (Grimson et al., 2008). […] The adaptor sequence was stripped and aligned to mouse NCBI build 37 (mm9) using ELAND. Reads mapping to the known microRNA hairpins were used for downstream analysis. Reads mapping to miRNA with more than one known copy in the genome were divided equally between the different loci. miRNA analysis methods to compute miRNA expression counts were derived from previously published methods (Baek et al., 2008).

[3] = dose response curves in the absence of DMOG

C[C@@H]1C[C@H]2[C@@H]3CCC4=CC(=O)C=C[C@]4(C)[C@@]3(F)[C@@H](O)C[C@]2(C)[C@@]1(O)C(=O)CO [Dex, dexamethasone]
Increase of total number of cells after the first three days ([1]; CD24 and CD71 10% low BFU-E cells, 100 nM Dex and/or 333 μM DMOG): ~20 fold | Total cell expansion from 1000 "BFU-E" cells, liquid culture ([1]; CD24 and CD71 10% low BFU-E cells, SFELE, 100 nM Dex and/or 333 μM DMOG, day 1): 3,900 | Total cell expansion from 1000 "BFU-E" cells, liquid culture ([1]; CD24 and CD71 10% low BFU-E cells, SFELE, 100 nM Dex and/or 333 μM DMOG, day 2): 30,000 | Total cell expansion from 1000 "BFU-E" cells, liquid culture ([1]; CD24 and CD71 10% low BFU-E cells, SFELE, 100 nM Dex and/or 333 μM DMOG, day 3): 200,000 | Total cell expansion from 1000 "BFU-E" cells, liquid culture ([1]; CD24 and CD71 10% low BFU-E cells, SFELE, 100 nM Dex and/or 333 μM DMOG, day 4): 1,200,000 | Total cell expansion from 1000 "BFU-E" cells, liquid culture ([1]; CD24 and CD71 10% low BFU-E cells, SFELE, 100 nM Dex and/or 333 μM DMOG, day 5): 3,500,000 | Total cell expansion from 1000 "BFU-E" cells, liquid culture ([1]; CD24 and CD71 10% low BFU-E cells, SFELE, 100 nM Dex and/or 333 μM DMOG, day 6): 7,200,000 | Total cell expansion from 1000 "BFU-E" cells, liquid culture ([1]; CD24 and CD71 10% low BFU-E cells, SFELE, 100 nM Dex and/or 333 μM DMOG, day 7): 14,000,000 | Total cell expansion from 1000 "BFU-E" cells, liquid culture ([1]; CD24 and CD71 10% low BFU-E cells, SFELE, 100 nM Dex and/or 333 μM DMOG, day 8): 20,000,000 | Total cell expansion from 1000 "BFU-E" cells, liquid culture ([1]; CD24 and CD71 10% low BFU-E cells, SFELE, 100 nM Dex and/or 333 μM DMOG, day 9): 25,000,000 | Total cell expansion from 1000 "BFU-E" cells, liquid culture ([1]; CD24 and CD71 10% low BFU-E cells, SFELE, 100 nM Dex and/or 333 μM DMOG, day 10): 25,000,000 | Total cell expansion from 1000 "BFU-E" cells, liquid culture ([1]; CD24 and CD71 10% low BFU-E cells, SFELE, 100 nM Dex and/or 333 μM DMOG, day 11): 20,000,000 | Total cell expansion from 1000 BFU-E cells ([1]; 100 nM Dex, 24 h): 5,367 (±1,626) | Total cell expansion from 1000 BFU-E cells ([1]; 100 nM Dex, 48 h): 50,013 (±18,160) | Total cell expansion from 1000 BFU-E cells ([1]; 100 nM Dex, 72 h): 297,340 (±114,540) | Total cell expansion from 1000 BFU-E cells ([1]; 100 nM Dex, 120 h): 2,484,148 (±988,022) | Expansion of BFU-E cells, peak ([1]; CD71 10% low cells, SFELE, 100 nM Dex, peak at day 8): 8,800 fold | Increase of proliferation of sorted BFU-E cells ([1]; CD71 and CD24a 10% low cells, SFELE, 100 nM Dex and/or 333 μM DMOG, versus no additions): 42 fold | Average number of divisions of each BFU-E cell ([1]; SFELE, 100 nM Dex): 13 times | Cell number per original BFU-E cell ([1]; SFELE, 100 nM Dex): 8,800 cells per original BFU-E cell | Dex concentrations at which a clear effect on CFU-E formation is seen [1, 3]: > 2 nM | Dex concentrations giving maximum effect on CFU-E formation [1, 3]: above 10 nM | Dex concentration that supports maximal stimulation of BFU-E proliferation ([1]; dose-response, FIG. 1 C and D): 10 nM | Dex concentrations with little stimulatory effect on BFU-E proliferation ([1]; dose-response, FIG. 1 C and D): below 1 nM | Increase in expression of the 100 highest expressed miRNAs [2]: ≤ 50% | Increase in miR-451 expression [2]: 49%
